Data: paper PMC6643834 (ACS Omega, 2018)

Columns and labels:
[1] = test system: P. aeruginosa PAO1 static biofilms; assay: Static biofilm assay, P. aeruginosa; format: cell-based, Pseudomonas aeruginosa
[2] = test system: Staph. aureus biofilm; assay: Static biofilm assay, Staph. aureus; format: cell-based, Staphylococcus aureus; details: treating with CIP
[3] = test system: B. anthracis Sterne 7700 pXO1–/pXO2–; assay: microbe, parasite or virus in culture; format: cell-based; details: Bacillus anthracis, 8 h, read-out: MIC50 Gram-positive Bant
[4] = test system: P. aeruginosa purine deoxyribonucleotide levels (bacterial RNR); assay: DPA assay for dNTP quantification; format: cell-based, P. aeruginosa PAO1; details: 5 mM for 3 h, exponential phase, compared to negative control
[5] = test system: P. aeruginosa continuous-flow biofilms; assay: Flow cell biofilm assay; format: cell-based, Pseudomonas aeruginosa; details: COMSTAT analysis
[6] = test system: class Ia RNR (NrdA); assay: NrdA expression by Western immunoblot; format: cell-based, P. aeruginosa PAO1; details: 5 mM for 3 h, compared to the negative control

## O=C(O)c1cn(C2CC2)c2cc(N3CCNCC3)c(F)cc2c1=O [CIP, ciprofloxacin, reference compound]
[1]; CIP 0.5 μg/mL, positive control
  reduction of preestablished biofilm: more than 85%
[2]
  reduction of Staph. aureus biofilm: around 60%

## COc1ccc(CNO)c(C)c1 [Compound 17, N-(4-Methoxy-2-methylbenzyl)hydroxylamine]
[3]
  MIC50: < 15 µg/mL

## NC(=O)NO [HU, hydroxyurea, reference compound]
[4]
  reduction of dNTP levels: 65.45%

## Cc1cc(F)ccc1CNO [Compound 12, N-(4-Fluoro-2-methylbenzyl)hydroxylamine]
[1]; after 72 h of treatment, highest concentrations
  reduction of established biofilm: above 55%
[5]
  decrease of biomass and average thickness: more than 30%
[4]
  reduction of dNTP levels: 67.50%
[6]
  induction of NrdA expression (fold): 3
